Counter-ions that a name gives are not always drawn.

This assay deals with mice. Nature of the assay: Closed head injury (CHI) in mice: motor function, neurological severity score (NSS). It counts as in vivo. As to conditions: sc at ED50 for acetylcholinesterase inhibition, once 15 min after CHI. The method, then:
The procedure for closed head injury followed was as described for rats in Shohami et al. (J. Neurotrauma (1993) 10(2) 109-119) with changes as described.
Animals: Male Sabra mice (Hebrew University strain) weighing 34-40g were used. They were housed in groups of 10 per cage, in a 12hr:12hr light:dark cycle. Food and water were provided ad libitum.
Trauma was induced under ether anesthesia. A longitudinal incision was performed in the skin covering the skull and the skin retracted to expose the skull. The head was fixed manually at the lower plane of the impact apparatus. A weight of 333g was delivered by an electric device from a height of 3cm to the left hemisphere, 1-2mm lateral to the midline in the midcoronal plane.
One point was awarded for the lack of a tested reflex or for the inability to perform the tasks outline in the Table. The maximal score that can be reached at 1 hour post-CHI is 25 points and 21 at later times. The difference in NSS at 1hr and at any other time reflects the recovery, and is referred to as NSS. An NSS score of 15-19 at 1hr denotes severe injury, 11-14 moderate injury and less than 10 mild injury.

For `C#CCNC(C)Cc1cccc(OC(=O)N(C)CC)c1` (stereo not drawn) [Compound 17, 3-(N-Me,N-Etcarbamyloxy)α-methyl, N-propargyl phenethylamine.HCl], the “ΔNSS, 24 hr post-CHI” value (saline 4.75±0.17) is 5.58±0.38. Moreover, under “saline 5.83±0.36”, the “ΔNSS, 7 days post-CHI” value is on record as 6.92±0.36. In addition, the “ΔNSS, 14 days post-CHI” value (saline 5.96±0.4) was determined as 7.83±0.53.

Source of the values: patent publication EP0951284B1, “[…] DERIVATIVES” (priority 1996, dated 1998).
